# Key:
# [1] = across species tested; cited from earlier work
# [2] = rats, cited from earlier work
# [3] = cited from earlier work
# [4] = cited from earlier work; remark: listed apart in the source
# [5] = system: rat model of formalin (FML)-induced chronic pain; experiment: Von Frey assay (VFA), mechanical allodynia, formalin-induced rat pain model; format: in vivo, Sprague Dawley rats
# Text: This example describes the effects of intravenous administration of psychedelics on pain perception and diseases associated with pain, such as nociplastic pain, in an animal model of pain. A rat model of formalin (FML)-induced chronic pain was used to investigate the effect of psilocybin administration on mechanical allodynia and thermal hyperalgesia.
# Chronic pain in rats was induced by injection of formalin into the hind paw. The rats subsequently were intravenously administered psilocybin, and assessed for changes in pain perception over an extended period of time. […] The pain perception was measured in the contralateral and ipsilateral paws to assess the potential benefit of psychedelics (e.g., psilocybin) in nociplastic pain disorders. […]
# Adult male Sprague Dawley rats (300-350 g) were implanted with a catheter in the jugular vein for delivery of 10 mg/kg psilocybin or 0.9% saline. Mechanical allodynia was assessed using von Frey assay (VFA) and was expressed as the threshold in grams (g). Thermal hyperalgesia was measured as paw withdrawal latency in seconds (s) using the hot plate assay (HPA) (52.5° C.). After post-surgical recovery (7-10 days), baseline responses to mechanical and thermal stimuli were measured. […] Two hours after the formalin injection, paw withdrawal thresholds in response to mechanical and thermal stimuli were measured. […]
# Two types of pain perception were measured. […]
# [6] = single oral administration of psilocybin at 0.225 mg/kg (Hasler et al.)
SMILES,brain regions with the highest levels of psilocin [1],share of total psilocin absorbed from the digestive tract ([2]; oral psilocybin (Kalberer et al.)),time to maximum plasma levels ([2]; post-administration (Chen et al.)),time until psilocin is detectable in plasma ([3]; after administration of the parent compound (oral psilocybin)) [min],absolute bioavailability of psilocin after oral administration of psilocybin ([3]; estimate (Hasler et al.)),half-life of psilocin in blood ([3]; in vivo) [h],"average peak concentration of psilocin in plasma [3, 6]","time of peak plasma levels of psilocin [3, 6] [min]",tolerability ([4]; at the doses examined in clinical studies / healthy individuals),"rates of prolonged psychiatric symptoms of any kind following psilocybin exposure ([4]; healthy study subjects, estimated)",drug-related serious adverse events (SAEs) ([4]; oral psilocybin),"duration of statistically significant increase in withdrawal threshold ([5]; contralateral paw, after a single psilocybin administration) [weeks]",duration of decreased tactile pain ([5]; rat model of pain),bioavailability of oral psilocybin ([3]; oral) [%]
CN(C)CCc1c[nH]c2cccc(O)c12 [psilocin],"neocortex, hippocampus, and thalamus",approximately 50%,approximately 90 minutes,≤ 20,52.7+/−20%,2 to 3,8.2+/−2.8 ng psilocin/ml plasma,105 ± 37,,,,,,
"CN(C)CCc1c[nH]c2cccc(OP(=O)(O)O)c12 [psilocybin, 3-[2-(dimethylamino)ethyl]-1H-indol-4-yl]dihydrogen phosphate]",,,,,,,,,well tolerated,0.08-0.09%,No drug-related serious adverse events (SAEs) have been reported,3,up to 28 days,~50

# Reference: US20260108545A1, “Methods of treating fibromyalgia with compositions comprising psilocybin” (Tryp Therapeutics Inc., priority 2022, published 2026)
